The values that follow come from US12234211B2, “Cycloolefin substituted heteroaromatic compounds and their use” (HUTCHISON MEDIPHARMA LIMITED, priority 2017, dated 2025).

In one assay the target is T1, IDH2-R140Q (Homo sapiens, UniProt P48735, R140Q).
T1 construct: expressed in transfected cells
T1 sequence (P48735 40-452 R140Q): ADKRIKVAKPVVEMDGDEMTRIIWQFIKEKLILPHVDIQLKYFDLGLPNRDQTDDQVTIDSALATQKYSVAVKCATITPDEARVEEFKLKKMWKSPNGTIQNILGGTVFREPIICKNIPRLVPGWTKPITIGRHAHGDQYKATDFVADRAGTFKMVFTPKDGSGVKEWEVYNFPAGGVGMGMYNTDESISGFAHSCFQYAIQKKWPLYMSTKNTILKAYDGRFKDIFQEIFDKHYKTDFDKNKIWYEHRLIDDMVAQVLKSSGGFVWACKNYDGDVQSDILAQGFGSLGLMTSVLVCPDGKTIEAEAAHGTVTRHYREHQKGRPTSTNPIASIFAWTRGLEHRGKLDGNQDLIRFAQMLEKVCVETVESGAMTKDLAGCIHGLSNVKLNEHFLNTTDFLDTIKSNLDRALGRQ
The assay is described as follows: Fluorescent determination of IDH2-R140Q cell activity (2-HG in U87MGR140Q cells). It counts as cell-based. The settings on record: 72 hours incubation, read-out: IC50 (2-HG inhibition). The protocol: Enzyme reaction solution: 1 mM nicotinamide adenine dinucleotide (NAD), 0.6 ng/μL D-2-hydroxyglutarate dehydrogenase (D2HGDH), 0.8 U/mL lipoamidase dehydrogenase (Diaphorase) and 60 μM Resazurin in 40 mM Tris.HCl pH 8.8 assay buffer.
Standard curve stock solution: The standard of 2-HG sodium salt was serially diluted in serum-free MEM medium to make a standard curve stock solution.
100 μL of U87MGR140Q cells were seeded at a density of 6×10^4/mL per well in a 96-well plate a.
From each well of 96-well plate a, 50 μL of the culture supernatant was transferred to the corresponding well of 96-well plate b; at the same time, 50 μL of standard curve stocking solution was added to other wells of 96-well plate b. Then 10 μl of 360 mM hydrochloric acid was added to all the wells. After shaking and mixing, the plate was placed on ice for 10 minutes, and then 10 μl of 420 mM Tris-base was added. After shaking and mixing, the plate was placed on ice for additional 5 minutes. Then the plate was centrifuged at 2500 rpm for 10 minutes.
After centrifuging, from each well of 96-well plate b, 20 μL of the supernatant was transferred to 96-well plate c. An additional 80 μL of the enzyme reaction solution was added to each well and incubated at 25° C. for 90 minutes.
A standard curve of the fluorescence value vs. the corresponding 2-HG concentration was made, and the 2-HG concentration corresponding to each concentration point of the compound was calculated, then the inhibition ratio was calculated, and the data was analyzed using XLfit5 (ID Business Solutions Limited) software to obtain the IC50 value.
The inhibition ratio was calculated as follows: Inhibition Ratio (IH %)=(1-2-HG concentration of test compound treated cells/2-HG concentration of control cells)×100%.

The next assay concerns the target T2, IDH1-R132H (Homo sapiens, UniProt O75874, R132H).
T2 construct: expressed in transfected cells; host or cells: U87MG cells (U87MGR132H)
The assay is described as follows: Fluorescent determination of IDH1-R132H cell activity (2-HG in U87MGR132H cells). It counts as cell-based. The settings on record: 2-HG inhibition in U87MGR132H cells transfected with IDH1-R132H mutant plasmid.

pIC50: −log10 of the molar value. Where only a bound is given, the exact number is not on record here.

T2 sequence (O75874 whole entry R132H): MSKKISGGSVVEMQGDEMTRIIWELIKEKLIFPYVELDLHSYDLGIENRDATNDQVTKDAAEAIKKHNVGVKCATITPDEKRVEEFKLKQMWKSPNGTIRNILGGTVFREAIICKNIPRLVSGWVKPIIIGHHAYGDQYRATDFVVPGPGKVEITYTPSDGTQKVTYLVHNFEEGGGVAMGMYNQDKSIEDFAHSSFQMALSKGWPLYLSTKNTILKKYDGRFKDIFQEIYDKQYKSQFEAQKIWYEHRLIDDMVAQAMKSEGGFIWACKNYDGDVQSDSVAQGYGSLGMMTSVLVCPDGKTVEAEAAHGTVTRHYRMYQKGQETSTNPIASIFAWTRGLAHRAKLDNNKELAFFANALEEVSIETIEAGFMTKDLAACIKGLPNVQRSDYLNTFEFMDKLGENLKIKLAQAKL

With `CC(C)(O)CNc1nc(Nc2ccc3sncc3c2)nc(C2=C(F)C(O)CCC2)n1` (stereo not shown) [Compound 199], the results for the pIC50 at IDH2-R140Q and at IDH1-R132H were 5.82 and < 5.00, respectively.

On to `C[C@@H](Nc1nc(NC2CC(F)(F)C2)nc(C2=C(F)C(O)C(F)CC2)n1)C(F)(F)F` (single isomer, unassigned) [Compound 228], for which the results for the pIC50 on IDH2-R140Q and against IDH1-R132H were 6.38 and 6.15, respectively.

Regarding `CC(C)Nc1nc(Nc2ccc3c(cnn3C)c2)nc(C2=C(F)C(O)CCC2)n1` (stereo not shown) [Compound 64], the pIC50 at IDH2-R140Q is 5.79; on IDH1-R132H it was < 5.00.

Regarding `[2H]C([2H])([2H])C([2H])(Nc1nc(N[C@H](C)C(F)(F)F)nc(C2=C(F)C(O)CCC2)n1)C([2H])([2H])[2H]` (stereo partly shown) [Compound 52], the pIC50 on IDH2-R140Q is 6.64; at IDH1-R132H, 5.65.

As for `C[C@H](Nc1nc(NC2CC2)nc(C2=C(F)C(O)C(F)(F)CC2)n1)C(F)(F)F` (mixture of isomers) [Compound 260], the pIC50 on IDH2-R140Q is 7.03; at IDH1-R132H it was < 5.00.

In the case of `CC(C)(C)ONc1nc(Nc2ccnc(C(F)(F)F)n2)nc(C2=C(F)C(O)C(F)(F)CC2)n1` (stereo not shown) [Compound 214], the figures for the pIC50 at IDH2-R140Q and against IDH1-R132H were 6.97 and < 5.00, respectively.

Turning to `OC1C(F)=C(c2nc(Nc3ccnc(C(F)(F)F)c3)nc(N3CCC(F)(F)C3)n2)CCC1(F)F` (stereo not shown) [Compound 218], the pIC50 at IDH2-R140Q is 6.42; on IDH1-R132H, < 5.00.

For `CC(C)Nc1nc(Nc2ccc3ccccc3n2)nc(C2=C(F)C(O)CCC2)n1` (stereo not shown) [Compound 62], the negative logarithm of the IC50 (pIC50) on IDH2-R140Q is 5.87; on IDH1-R132H it was 5.57.

Take `C[C@H](Nc1nc(NC2CC(F)(F)C2)nc(C2=C(F)C(O)CCC2)n1)C(F)(F)F` (mixture of isomers) [Compound 32]: the pIC50 was 7.10 at IDH2-R140Q and 6.21 on IDH1-R132H.

With `C[C@@H](Nc1nc(NCCF)nc(C2=C(F)C(O)CCC2)n1)C(F)(F)F` (stereo partly shown) [Compound 240], the pIC50 on IDH2-R140Q was 6.01; against IDH1-R132H, < 5.00.

As for `C[C@@H](Nc1nc(N[C@H](C)C(F)(F)F)nc(C2=C(F)C(=O)C(F)CC2)n1)C(F)(F)F` (mixture of isomers) [Compound 242, 3-(4,6-Bis(((R)-1,1,1-trifluoropropan-2-yl)amino)-1,3,5-triazin-2-yl)-2,6-difluoro-cyclohex-2-en-1-one], the pIC50 on IDH2-R140Q is 6.10; at IDH1-R132H it was 5.45.

On to `C[C@@H](Nc1nc(NC2CC(F)(F)C2)nc(C2=C(F)C(O)CCCC2)n1)C(F)(F)F` (stereo partly shown) [Compound 40], for which the pIC50 was 6.97 at IDH2-R140Q and 6.35 against IDH1-R132H.

Consider `CC(C)Nc1nc(N[C@H](C)C(F)(F)F)nc(C2=C(F)C(O)C(F)CC2)n1` (single isomer, unassigned) [Compound 96], for which the pIC50 on IDH2-R140Q is 6.17; at IDH1-R132H, 5.57.

Take `[2H]C1(O)C(F)=C(c2nc(NOC(C)(C)C)nc(Nc3ccnc(C(F)(F)F)c3)n2)CCC1(F)F` (stereo not shown) [Compound 276]: the results for the pIC50 at IDH2-R140Q and on IDH1-R132H were 7.09 and 5.08, respectively.

Consider `CC(C)Nc1nc(NC2CC(F)(F)C2)nc(C2=C(F)C(O)C(F)(F)CC2)n1` (stereo not shown) [Compound 261], for which the pIC50 at IDH2-R140Q was 7.03; on IDH1-R132H, 5.65.

`CC(C)(C)ONc1nc(Nc2ccnc(F)c2)nc(C2=C(F)C(O)C(F)(F)CC2)n1` (stereo not shown) [Compound 215]: the pIC50 was 7.10 at IDH2-R140Q and < 5.00 on IDH1-R132H.

Turning to `C[C@@H](Nc1nc(N[C@H](C)C(F)(F)F)nc(C2=C(F)C(O)CCC2)n1)c1ccccc1` (mixture of isomers) [Compound 152, 2-Fluoro-3-(4-(((R)-1-phenylethyl)amino)-6-(((R)-1,1,1-trifluoropropan-2-yl)amino)-1,3,5-triazin-2-yl)cyclohex-2-en-1-ol], the figures for the negative-log IC50 (pIC50) on IDH2-R140Q and at IDH1-R132H were 6.52 and 5.70, respectively.

As to `OC1CCCCC(c2nc(NC3CC(F)(F)C3)nc(NC3CC(F)(F)C3)n2)=C1F` (stereo not shown) [Compound 39, (*)3-(4,6-Bis((3,3-difluorocyclobutyl)amino)-1,3,5-triazin-2-yl)-2-fluorocyclohept-2-en-1-ol], the pIC50 at IDH2-R140Q is 6.79; against IDH1-R132H, 5.72.

In the case of `C[C@@H](Nc1nc(N[C@H](C)C(F)(F)F)nc(C2=C(F)C(O)C(Cl)CC2)n1)C(F)(F)F` (mixture of isomers) [Compound 99, 3-(4,6-Bis(((R)-1,1,1-trifluoropropan-2-yl)amino)-1,3,5-triazin-2-yl)-6-chloro-2-fluoro-cyclohex-2-en-1-ol], the pIC50 at IDH2-R140Q was 6.26; against IDH1-R132H, 6.03.

Consider `C[C@@H](Nc1nc(NC2CCCC2)nc(C2=CC(O)CCC2)n1)C(F)(F)F` (mixture of isomers) [Compound 130], for which the pIC50 on IDH2-R140Q is 7.17; against IDH1-R132H, 6.13.

Turning to `C[C@@H](Nc1nc(N[C@H](C)C(F)(F)F)nc(C2=C(F)C(O)C(F)CC2)n1)C(F)(F)F` (stereo partly drawn) [Compound 266, 3-(4,6-Bis(((R)-1,1,1-trifluoropropan-2-yl)amino)-1,3,5-triazin-2-yl)-2,6-difluorocyclohex-2-en-1-D-1-ol], the pIC50 was 7.48 at IDH2-R140Q and 7.37 against IDH1-R132H.

With `OC1CCCC(c2nc(NCC(F)(F)F)nc(NC3CC(F)(F)C3)n2)=C1F` (stereo not shown) [Compound 241], the results for the pIC50 at IDH2-R140Q and on IDH1-R132H were 7.00 and 5.69, respectively.

For the compound `C[C@@H](Nc1nc(N[C@H](C)C(F)(F)F)nc(C2=C(F)C(O)C(F)CC2)n1)C(F)(F)F` (stereo partly drawn) [Compound 267, 3-(4,6-Bis(((R)-1,1,1-trifluoropropan-2-yl)amino)-1,3,5-triazin-2-yl)-2,6-difluorocyclohex-2-en-1-D-1-ol], the negative-log IC50 (pIC50) on IDH2-R140Q is 5.88; on IDH1-R132H, 5.45.

For the compound `C[C@@H](Nc1nc(N[C@H](C)C(F)(F)F)nc(C2=C(F)C(O)CCC2)n1)C1CC1` (mixture of isomers) [Compound 158], the pIC50 on IDH2-R140Q was 6.56; against IDH1-R132H, 5.82.

With `C[C@@H](Nc1nc(NCC2CC2)nc(C2=C(F)C(O)CCC2)n1)C(F)(F)F` (stereo partly shown) [Compound 80], the pIC50 on IDH2-R140Q was 7.10; against IDH1-R132H it was 5.57.

Regarding `CCONc1nc(Nc2ccnc(C(F)(F)F)c2)nc(C2=C(F)C(O)C(F)(F)CC2)n1` (stereo not shown) [Compound 212], the pIC50 on IDH2-R140Q was 7.20; against IDH1-R132H, < 5.00.

In the case of `CC(C)(C)ONc1nc(Nc2cc(C#N)ccn2)nc(C2=C(F)C(O)CCC2)n1` (stereo not shown) [Compound 60], the pIC50 on IDH2-R140Q is 6.23; on IDH1-R132H, < 5.00.

On to `CC(C)(C)ONc1nc(Nc2cc(C(F)(F)F)ncn2)nc(C2=C(F)C(O)CCC2)n1` (stereo not shown) [Compound 75], for which the negative logarithm of the IC50 (pIC50) on IDH2-R140Q was 6.66; against IDH1-R132H, < 5.00.

Consider `CC(C)[C@H](C)Nc1nc(N[C@H](C)C(F)(F)F)nc(C2=C(F)C(O)CCC2)n1` (mixture of isomers) [Compound 167], for which the pIC50 at IDH2-R140Q is 6.49; at IDH1-R132H, 5.50.

Turning to `C[C@@H](Nc1nc(N[C@H](C)C(F)(F)F)nc(C2=C(F)C(O)C(F)CC2)n1)C(F)(F)F` (stereo partly drawn) [Compound 268, 3-(4,6-Bis(((R)-1,1,1-trifluoropropan-2-yl)amino)-1,3,5-triazin-2-yl)-2,6-difluorocyclohex-2-en-1-D-1-ol], the pIC50 on IDH2-R140Q is 6.46; on IDH1-R132H, 6.03.

Consider `CC(C)(C)ONc1nc(Nc2cc(Cl)ccn2)nc(C2=C(F)C(O)CCC2)n1` (stereo not shown) [Compound 61], for which the pIC50 was 6.77 on IDH2-R140Q and < 5.00 on IDH1-R132H.

Turning to `CC(C)Nc1nc(Nc2ccc3ccnn3c2)nc(C2=C(F)C(O)CCC2)n1` (racemic) [Compound 200], the pIC50 at IDH2-R140Q was 6.20; at IDH1-R132H, < 5.00.
